Measured values reported in patent publication US9907763B2, “Method of treating or preventing the visual function loss by using 4-(phenylsulfanyl)butane-2-one (4-PSB-2)” (NATIONAL SUN YAT-SEN UNIVERSITY, priority 2016, dated 2018).

Legend:
RGC layer = experiment: TUNEL assay in retinal sections after optic nerve crush; format: in vivo, Wistar rats; settings: RGC layer of retina; two weeks after ON crush; 5 mg/kg s.c. once; n=6; sham 2.0±1.7, PBS 14.8±6.5
Protocol: (§1) Forty five adult male Wistar rats weighing 150-180 g (7-8 weeks old) were used and grouped (Table 1). All manipulations were performed with animals under general anesthesia induced by an intramuscular injection of a mixture of ketamine (40 mg/kg body weight (BW)) and xylazine (4 mg/kg BW). In addition, topical 0.5% Alcaine eye drops (Alcon, Puurs, Belgium) were used to perform topical anesthesia.
(§2) After general anesthesia and topical Alcaine eye drop application, the ON was exposed and isolated. Care was taken to avoid damaging the small vessels around the ON. A vascular clip (60 g micro-vascular clip) was then applied to the ON 2 mm posterior to the globe for 30 seconds. After the surgery, Tobradex eye ointment (Alcon, Puurs, Belgium) was administered. The rats were kept on electric heating pads at 37° C. for recovery. The control group received a sham operation that entailed ON exposure without the crush. […]
To ensure the use of equivalent fields for comparison, all retinal frozen sections were prepared with retinas at 1-2 mm distance from the optic nerve head. […] The TUNEL positive cells in the RGC layer of each sample were counted in ten high powered fields (HPF, ×400 magnification), and three sections per eye were averaged.

RGCs = experiment: Retrograde Fluoro-Gold labeling of RGCs and RGC densities after optic nerve crush; format: in vivo, Wistar rats; settings: two weeks after ON crush
Protocol: as §1
(§3) After general anesthesia and topical Alcaine eye drop application, the ON was exposed and isolated. Care was taken to avoid damaging the small vessels around the ON. A vascular clip (60 g micro-vascular clip) was then applied to the ON 2 mm posterior to the globe for 30 seconds. After the surgery, Tobradex eye ointment (Alcon, Puurs, Belgium) was administered. The rats were kept on electric heating pads at 37° C. for recovery. The control group received a sham operation that entailed ON exposure without the crush. 4-PSB-2 (5 mg/kg in 0.2 mL phosphate-buffered saline) or phosphate buffered saline (PBS control) was immediately administered after ON crush once by subcutaneous injection.
With this technique, only the RGCs with intact axons projected to the SC were labeled with FG. The procedure was performed based on Chang et al (Exp. Eye Res., 2004, 118, 109-116). Briefly, one week before sacrificing, the rats were anesthetized using a ketamine (100 mg/kg) and Xylazine (10 mg/kg) mixture, and then placed in a stereotactic apparatus. […] One week after labeling, the eyeballs were harvested after euthanasia of the animals. The eyeballs were placed in 10% formalin and iii the whole retina was then carefully dissected, flattened. The retina was examined with a 400× epi-fluorescence microscope equipped with a filter set (excitation filter=350-400 nm; barrier filter=515 nm), as well as a digital camera and software. The retinas were examined for RGCs at a distance of 1 or 3 mm from the optic nerve head in order to provide the central and mid-peripheral RGC densities respectively (FIG. 1A). RGCs were counted in eight areas randomly of […]/each in the central (about 40% of the central area) (FIG. 1B), and eight areas randomly of 38,250 mm^2/each in the mid-peripheral (about 30% of the mid-periphery) regions of each retina. The averages of these areas were taken as the mean density of RGCs per retina. RGC survival percentage was defined as the number of RGCs in each treatment group divided by the number of RGCs in the sham operated retina, multiplied by 100.

COX-2 = experiment: Immunoblotting and immunohistochemical analysis of COX-2 expression in the retina after ON crush; format: in vivo, Wistar rats; settings: two weeks after ON crush, 5 mg/kg s.c. once, ratio to GAPDH, n=3, result in words
Protocol: as §1
as §2, with “recovery.” for “recovery. The control group received a sham operation that entailed ON exposure without the crush.”
(§4) IHC of ED1 (CD68, a marker of macrophage/microglia) in the ONs and IHC of CD11b, iNOS and COX-2 in the retina using monoclonal antibodies (ED1, 1:50; CD11b, 1:20; AbD Serotec, Oxford, UK) or polyclonal antibodies (iNOS, 1:50; Cell signaling Inc. Beverly, Mass., USA; COX-2, 1:50; Santa Cruz, Calif., USA) were performed. […] For comparison, ED1 positive cells were counted in six HPF at the lesion site of ON (six rats in each group). Cd11b positive cells were counted in six HPF and three sections per eye were averaged. […]

[1] = test system: ED1 (CD68, a marker of macrophage/microglia); experiment: Immunohistochemistry of ED1 in the ONs after optic nerve crush; format: in vivo, Wistar rats; settings: lesion site of ON; two weeks after ON crush; 5 mg/kg s.c. once; n=6; sham 4.3±2.5, PBS 67.3±21.1
Protocol: as §1
as §2, with “recovery.” for “recovery. The control group received a sham operation that entailed ON exposure without the crush.”
(§5) IHC of ED1 (CD68, a marker of macrophage/microglia) in the ONs and IHC of CD11b, iNOS and COX-2 in the retina using monoclonal antibodies (ED1, 1:50; CD11b, 1:20; AbD Serotec, Oxford, UK) or polyclonal antibodies (iNOS, 1:50; Cell signaling Inc. Beverly, Mass., USA; COX-2, 1:50; Santa Cruz, Calif., USA) were performed. […] For comparison, ED1 positive cells were counted in six HPF at the lesion site of ON (six rats in each group). Cd11b positive cells were counted in six HPF and three sections per eye were averaged.

Cd11b = experiment: Immunohistochemistry of Cd11b in the retina after optic nerve crush; format: in vivo, Wistar rats; settings: two weeks after ON crush, 5 mg/kg s.c. once, n=6, sham 2.3±1.7, PBS 40.0±9.7
Protocol: as §1
as §2, with “recovery.” for “recovery. The control group received a sham operation that entailed ON exposure without the crush.”
as §5

Wistar rats = experiment: Flash visual-evoked potentials (FVEPs) after optic nerve crush; format: in vivo; settings: 2 weeks after ON crush; 5 mg/kg s.c. once; n=6; sham 83±3 ms, PBS 154±23 ms
Protocol: as §1, §3
For the functional evaluation of the ON, FVEPs were recorded 2 weeks after ON crush in 18 experimental rats. […]

iNOS = experiment: Immunoblotting and immunohistochemical analysis of iNOS expression in the retina after ON crush; format: in vivo, Wistar rats; settings: two weeks after ON crush, 5 mg/kg s.c. once, ratio to GAPDH, n=3, result in words
Protocol: as §1
as §2, with “recovery.” for “recovery. The control group received a sham operation that entailed ON exposure without the crush.”
as §4

Compound: CC(=O)CCSc1ccccc1 [4-PSB-2, 4-(phenylsulfanyl)butan-2-one]
- TUNEL positive cells in the RGC layer (RGC layer): 6.7±3.4 positive cells/HPG
- densities of RGCs in the central retina (RGCs; central retina, 5 mg/kg once by subcutaneous injection immediately after crush, n=6): 1342±473 /mm^2
- RGC survival, central retina (RGCs; central retina, relative to sham operated retina, 5 mg/kg s.c. once): 56.8 % survival
- RGC survival rate increase as compared to the PBS-treated group, central retina (RGCs; central retina, vs PBS-treated group, p<0.05): approximately 35.7%
- densities of RGCs in mid-peripheral retina (RGCs; mid-peripheral retina, 5 mg/kg once by subcutaneous injection immediately after crush, n=6): 915±244 /mm^2
- RGC survival, mid-peripheral retina (RGCs; mid-peripheral retina, relative to sham operated retina, 5 mg/kg s.c. once): 65.3 % survival
- RGC survival rate increase as compared to the PBS-treated group, mid-peripheral retina (RGCs; mid-peripheral retina, vs PBS-treated group, p<0.05): ~35.3%
- COX-2 expression in the retina (COX-2): prevented the increase
- ED1 positive cells/HPF [1]: 33.5±14.5 positive cells/HPF
- Cd11b positive cells/HPF (Cd11b): 17.3±5.9 positive cells/HPF
- latency of the P1 wave (FVEP) (Wistar rats): 118 ± 14 ms
- iNOS expression in the retina (iNOS): prevented the increase
